Results taken from patent US20230102192A1, “THERAPIES FOR THE TREATMENT OF DISEASES AND DISORDERS ASSOCIATED WITH ABNORMAL EXPRESSION OF A NEURAL-ASSOCIATED GENE” (The Regents of the University of California, priority 2020, published 2023).

Columns and labels:
[1] = test system: MECP2-KO neurons; assay: Co-localized pre/postsynaptic puncta quantification in neurons; assay type: cell-based, human; conditions: one-month old MECP2-KO neurons treated two weeks
Protocol: (§1) Pharmacologic treatment. One-month old cortical organoids were treated for 1 mo with either Nefiracetam (10 μM) or PHA 543613 (10 μM) during media changes.
Synaptic puncta quantification. Co-localized pre and postsynaptic puncta (Vglut and Homer1 immunostained) along MAP2-positive processes were quantified. Primary antibodies (see above) incubated 2 h, secondary antibodies incubated 1 h, and coverslips were mounted. Slides were analyzed under fluorescence microscopy.
Pharmacologic screening identifies two compounds that specifically reverse MECP2-KO phenotypes. 14 commercially available pharmacologic compounds with mechanisms of action that counteract the synapse and neurotransmitter pathologies were selected and which are identified in FIG. 5B. […] MECP2-KO and control neurons were treated with each of the 14 compounds and employed a tiered series of assays to identify those that could selectively rescue MECP2-KO pathology without affecting controls. […] The capacity of these compounds to increase pre and post co-localized synaptic puncta in MECP2-KO neurons were evaluated, again eliminating the drugs that affected control neurons (see FIG. 5F-G, and FIG. 6C-D).

[2] = test system: MECP2-KO neurons; assay: Calcium imaging of neurons; assay type: cell-based, human; conditions: vs untreated KO
Protocol: as §1
Calcium imaging. Calcium imaging was performed as described in Chailangkarn et al. Briefly, PSC-derived neuronal networks were lentivirally transduced with a Syn::RFP reporter construct. Cultures were washed with Krebs HEPES buffer and incubated with Fluo-4AM (Molecular Probes/Invitrogen, Carlsbad, Calif., USA). A Hamamatsu ORCA-ER digital camera (Hamamatsu Photonics, Japan) with 488 nm filter on an Olympus IX81 inverted fluorescence confocal microscope (Olympus Optical, Tokyo, Japan) acquired 5000 frames at 28 Hz in a 256×256 pixel region (100× magnification). Images were acquired with MetaMorph7.7 (MDS Analytical Technologies, Sunnyvale, Calif., USA) and analyzed with ImageJ and Matlab7.2 (Mathworks, Natick, Mass., USA). Syn::RFP+ neurons were selected following tetrodotoxin blockade of calcium transients. A 95th-percentile threshold of amplitude for calcium spikes was set for event detection; signal amplitude is presented as fluorescence change (ΔF/F) following background subtraction.

[3] = large Carbamoylcholine metabolite; cited from earlier work

SMILES: CC(=O)NCCCS(=O)(=O)O [Acamprosate]
- synaptogenesis / co-localized synaptic puncta [1]: specifically increased synaptogenesis
- frequency of calcium oscillations [2]: increases
- percentage of active neurons [2]: increases

SMILES: C[N+](C)(C)CCOC(N)=O [Carbamoylcholine]
- gastrointestinal absorption [3]: limited gastrointestinal absorption
- traversal of the blood-brain barrier [3]: cannot traverse the blood-brain barrier
